Results as given in PMC7948796, “Mammalian-like type II glutaminyl cyclases in Porphyromonas gingivalis and other oral pathogenic bacteria as targets for treatment of periodontitis” (The Journal of Biological Chemistry, 2021).
Where two headings read alike, the source gives them in different places.

Columns and labels:
PiQC [1] = target: T1, PiQC (Prevotella intermedia, UniProt A0AAD1F671); assay type: biochemical; conditions: for Effect of chelator on QC activity: PiQC, Fig. S2
Protocol: (§1) To test whether QC is a metalloenzyme, the turnover of H-Gln-AMC at a concentration corresponding to 0.5 KM was investigated in the presence of the metal chelators 1,10- phenanthroline, dipicolinic acid, and EDTA. The fluorometric activity assay was performed as described above, except for the presence of 1% (v/v) DMSO in the case of 1,10-phenanthroline or dipicolinic acid. Finally, the residual QC activity was determined at steady state, whereas QC without chelators and ± 1% DMSO served as positive control.
(§2) 250 µM H-Gln-AMC and increasing chelator
(§3) concentrations were used to investigate the inhibitory effect on QC activity. Bars indicate residual
(§4) QC activity following initiation of the reaction by adding 5 nM QC (red: PgQC; green: PiQC; blue:
(§5) TfQC). All measurements were performed at 30°C as described in the text.
(§6) (1 picture or pasted object on this page, not shown here)

TfQC [2] = target: T2, TfQC (Tannerella forsythia, UniProt G8UMP8); assay type: biochemical; conditions: Fig. S2
T2 sequence (G8UMP8 entry or part of it): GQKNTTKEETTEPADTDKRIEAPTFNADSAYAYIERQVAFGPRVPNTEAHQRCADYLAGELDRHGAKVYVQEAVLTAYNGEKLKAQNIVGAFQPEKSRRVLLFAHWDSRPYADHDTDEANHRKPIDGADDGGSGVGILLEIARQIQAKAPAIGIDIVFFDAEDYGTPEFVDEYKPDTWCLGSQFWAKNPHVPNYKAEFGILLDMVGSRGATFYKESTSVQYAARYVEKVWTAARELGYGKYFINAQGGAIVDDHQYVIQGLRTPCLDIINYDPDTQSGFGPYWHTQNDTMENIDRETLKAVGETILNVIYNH
Protocol: as §1, §2, §3, §4, §5, §6

PgQC [3] = target: T3, PgQC (Porphyromonas gingivalis, UniProt Q7MT37); experiment: Residual QC activity in presence of metal chelators; assay type: biochemical; design: His-tag (pET28a, thrombin-cleavable) (N, cleaved yes); made in house; host or cells: E. coli Rosetta(DE3)pLysS; conditions: Fig. S2
Protocol: as §1
Supplementary Figure 2: Inhibition of bacteroidal QC activity by metal chelators: ( A) ED TA ,
(B) dipicolinic acid and (C) 1,10-phenantroline. 250 µM H-Gln-AMC and increasing chelator
as §3, §4, §5, §6

PgQC [4] = target: T3, PgQC; experiment: QC inhibition assay with fluorogenic substrate H-Gln-AMC (Ki); assay type: biochemical; design: His-tag (pET28a, thrombin-cleavable) (N, cleaved yes); made in house; host or cells: E. coli Rosetta(DE3)pLysS
Protocol: (§7) Inhibitory constants were determined using concentrations of H-Gln-AMC varying from 1/4 KM to 2 KM and a final concentration of bacterial QC in a range between 25 nM and 50 nM. Progress curves were fitted to the general equation for competitive inhibition.

HsQC [5] = target: T4, HsQC (Homo sapiens, UniProt Q16769); experiment: as above; assay type: biochemical
T4 sequence (Q16769 29-361): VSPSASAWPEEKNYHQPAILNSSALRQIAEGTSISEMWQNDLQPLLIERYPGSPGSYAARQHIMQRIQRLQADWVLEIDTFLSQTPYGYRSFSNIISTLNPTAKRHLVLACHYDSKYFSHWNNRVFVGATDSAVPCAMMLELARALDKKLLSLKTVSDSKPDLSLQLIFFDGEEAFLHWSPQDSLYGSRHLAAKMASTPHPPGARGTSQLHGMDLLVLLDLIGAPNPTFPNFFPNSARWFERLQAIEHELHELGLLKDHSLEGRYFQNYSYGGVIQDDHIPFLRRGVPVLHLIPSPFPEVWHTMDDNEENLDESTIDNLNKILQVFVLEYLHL

PiQC [6] = target: T1, PiQC; experiment: as above; assay type: biochemical; conditions: 1% DMSO, pH 8.0, 30 °C
Protocol: as §7

TfQC [7] = target: T2, TfQC; experiment: as above; assay type: biochemical; conditions: 1% DMSO, pH 8.0, 30 °C
Protocol: as §7

HsQC [8] = target: T4, HsQC; design: method as in Schilling et al. ([44]); conditions: ref Schilling et al. ([44]); cited from earlier work
TfQC [9] = target: T2, TfQC; experiment: Kinetics of cyclization of H-Gln-AMC; assay type: biochemical
Protocol: (§8) QC activity was evaluated using the fluorogenic substrate H-Gln-AMC as described previously ([43]). Measurements were performed at different concentrations of fluorogenic substrate and 0.5 U pyroglutaminyl aminopeptidase in 50 mM Tris-HCl, 50 mM NaCl at pH 8.0. After 10 min incubation time at 30 °C, the reaction was initiated by addition of approximately 50 nM QC to a final volume of 125 μl reaction mixture. QC activity was calculated from a standard curve of the fluorophore AMC at assay conditions using excitation/emission wavelengths of 380/460 nm. All measurements were carried out in 96-well microtiter plates (Fisher Scientific) at 30 °C using the FluoStar Optima (BMG Labtech). All kinetic data were evaluated using GraFit software (Version 7, Erithacus software Ltd).
(§9) Supplementary Figure 1: QC activity measurements for bacteroidal QC cataly zed cyclization of the fluorogenic substrate H-Gln-AMC. (A) v/S-characteristics and Lineweaver-Burk plots for PgQC (red circles), TfQC (green triangles) and PiQC (blue squares). QC activity measurements were performed in 50 mM Tris-HCl, pH 8.0 and 50 mM NaCl at 30°C. Kinetic data were evaluated using GraFit software (Version 7, Erithacus software Ltd., Horley, UK). (B) pH dependence of PgQC, TfQC, and PiQC activities; colors and sy mbols as in (A). The specificity constants kcat/KM were determined under first-order rate law conditions with substrate concentrations of 1/10 KM.
(§10) Measurements were carried out at 30°C in buffer consisting of 0.1 M Tris-HCl, 0.05 MES, 0.05 mM acetic acid and 0.05 mM NaCl.. […]

PiQC [10] = target: T1, PiQC; assay type: biochemical
Protocol: as §8, §9, §10

PgQC [11] = target: T3, PgQC
Protocol: as §8, §9, §10

[12] = substrate: CC[C@H](C)[C@H](NC(=O)[C@H](CO)NC(=O)[C@H](CC(=O)O)NC(=O)[C@@H]1CCCN1C(=O)[C@@H](NC(=O)[C@@H](NC(=O)[C@H](CO)NC(=O)[C@@H](N)CCC(N)=O)C(C)C)C(C)C)C(=O)NCC(=O)N[C@@H](CCCNC(=N)N)C(N)=O; experiment: Conversion of N-termini of putative natural substrates, spectrophotometric assay with glutamate dehydrogenase; assay type: biochemical, Porphyromonas gingivalis; conditions: other: PgQC, pH 8.0, 30 °C
Protocol: (§11) For evaluation of possible physiological substrates, PgQC activity was determined spectrophotometrically by using glutamate dehydrogenase as auxiliary enzyme described previously ([44]). […] After 10-min incubation time at 30 °C, reactions were initiated by addition of approximately 115 nM PgQC to a final volume of 250 μl reaction mixture. QC turnover of substrates was monitored by a decrease of absorption at 340 nm and enzyme activity was determined from a standard curve of NH4Cl at assay conditions.

[13] = substrate: C[C@H](NC(=O)[C@H](CCC(=O)O)NC(=O)[C@H](Cc1ccc(O)cc1)NC(=O)[C@@H](NC(=O)[C@H](CCCNC(=N)N)NC(=O)[C@H](CC(N)=O)NC(=O)[C@H](CCCNC(=N)N)NC(=O)[C@H](CO)NC(=O)[C@@H](N)CCC(N)=O)[C@@H](C)O)C(=O)N[C@@H](Cc1ccc(O)cc1)C(N)=O; experiment: as above; assay type: biochemical, Porphyromonas gingivalis; conditions: other: PgQC, pH 8.0, 30 °C
Protocol: as §11

[14] = substrate: CC(C)[C@H](NC(=O)[C@H](CO)NC(=O)[C@H](C)NC(=O)[C@H](CC(N)=O)NC(=O)[C@H](CO)NC(=O)[C@H](CCC(=O)O)NC(=O)[C@@H](N)CCC(N)=O)C(=O)N[C@@H](CCCNC(=N)N)C(=O)N1CCC[C@H]1C(=O)N[C@@H](CO)C(N)=O; experiment: as above; assay type: biochemical, Porphyromonas gingivalis; conditions: other: PgQC; determined under first-order-rate law conditions, [S] << KM; pH 8.0; 30.0 °C
Protocol: as §11

[15] = substrate: CC(C)[C@H](NC(=O)[C@H](CCC(N)=O)NC(=O)[C@@H](N)CCC(N)=O)C(=O)N[C@@H](C)C(=O)N[C@@H](C)C(=O)N[C@@H](C)C(=O)N[C@@H](CC(=O)O)C(=O)N1CCC[C@H]1C(=O)N[C@@H](CO)C(=O)N1CCC[C@H]1C(N)=O; experiment: as above; assay type: biochemical, Porphyromonas gingivalis; conditions: other: PgQC; determined under first-order-rate law conditions, [S] << KM; pH 8.0; 30.0 °C
Protocol: as §11

[16] = substrate: CC[C@H](C)[C@H](NC(=O)[C@@H](NC(=O)[C@H](CC(=O)O)NC(=O)[C@@H](N)CCC(N)=O)C(C)C)C(=O)N[C@@H](CCCNC(=N)N)C(=O)N1CCC[C@H]1C(=O)N[C@@H](Cc1c[nH]c2ccccc12)C(=O)N[C@@H](CO)C(=O)N[C@@H](CC(C)C)C(=O)N[C@@H](CCC(N)=O)C(N)=O; experiment: as above; assay type: biochemical, Porphyromonas gingivalis; conditions: other: PgQC; determined under first-order-rate law conditions, [S] << KM; pH 8.0; 30.0 °C
Protocol: as §11

[17] = H-Gln-AMC substrate, 1% DMSO, pH 8.0, 30 °C, read-out: Inhibition of QC (Ki) PgQC

T1 sequence (A0AAD1F671 24-340 limits assumed): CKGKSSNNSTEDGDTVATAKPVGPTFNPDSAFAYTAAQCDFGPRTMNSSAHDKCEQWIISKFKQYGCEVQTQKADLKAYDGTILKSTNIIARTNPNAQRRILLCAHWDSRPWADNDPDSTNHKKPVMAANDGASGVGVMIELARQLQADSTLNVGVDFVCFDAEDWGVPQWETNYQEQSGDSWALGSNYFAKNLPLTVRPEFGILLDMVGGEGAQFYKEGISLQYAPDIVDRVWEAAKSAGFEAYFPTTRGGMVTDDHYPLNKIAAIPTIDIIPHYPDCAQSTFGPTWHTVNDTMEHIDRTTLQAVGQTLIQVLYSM

c1cnc2c(c1)ccc1cccnc12 [1,10-phenanthroline]
Sensitivity of PiQC to chelator (PiQC [1]; PiQC compared with other bacteroidal QCs): particularly sensitive | Effect of chelator on QC activity (PiQC [1]): strong inhibitory activity | Effect of chelator on QC activity (TfQC [2]): strong inhibitory activity | Effect of chelator on QC activity (PgQC [3]): strong inhibitory activity

c1ccc2[nH]cnc2c1 [Benzimidazole, benzimidazole]
Ki (PgQC [4]; [17]): 32.1 ± 1.4 µM | Ki (HsQC [5]): 318 ± 23 µM | Ki (PiQC [6]): 85.5 ± 4.7 µM | Ki (TfQC [7]): 170 ± 1 µM

O=C(O)c1cccc(C(=O)O)n1 [dipicolinic acid]
Effect of chelator on QC activity (PiQC [1]): strong inhibitory activity | Effect of chelator on QC activity (TfQC [2]): strong inhibitory activity | Effect of chelator on QC activity (PgQC [3]): strong inhibitory activity

c1c[nH]cn1 [Imidazole, imidazole]
Ki (PgQC [4]; [17]): 349 ± 23 µM | Ki (PiQC [6]): 288 ± 11 µM | Ki (TfQC [7]): 280 ± 15 µM

O=C(O)CN(CCN(CC(=O)O)CC(=O)O)CC(=O)O [EDTA]
Effect of chelator on QC activity (PiQC [1]): little influence | Effect of chelator on QC activity (TfQC [2]): little influence | Effect of chelator on QC activity (PgQC [3]): little influence

c1ccc(Cn2ccnc2)cc1 [1-Benzylimidazol, 1-benzylimidazole]
Mode of inhibition of PgQC (PgQC [4]; Fig. S3): competitive manner | Ki (PgQC [4]; [17]): 10.4 ± 0.3 µM | Ki (PgQC [4]; stated in text for the bacteroidal QCs in general, read-out: Estimated Ki, highest efficacy): ~10 µM | Ki (HsQC [5]): 16.8 ± 3.5 µM | Ki (PiQC [6]): 13.5 ± 2.2 µM | Ki (TfQC [7]): 6.45 ± 0.33 µM

Cc1cc(=O)oc2cc(NC(=O)[C@@H](N)CCC(N)=O)ccc12 [H-Gln-AMC]
Km (HsQC [8]): 54 ± 2 µM | kcat (HsQC [8]): 5.3 ± 0.1 s⁻¹ | KM value higher compared with HsQC (TfQC [9]): ~20 fold | specificity constant kcat/KM relative to that of HsQC (TfQC [9]): approximately 4% | Km (TfQC [9]; pH 8.0, 30 °C): 1090 ± 30 µM | kcat (TfQC [9]; pH 8.0, 30 °C): 4.49 ± 0.22 s⁻¹ | specificity constant kcat/KM relative to that of HsQC (PiQC [10]): ~13% | Km (PiQC [10]; pH 8.0, 30 °C): 645 ± 7 µM | kcat (PiQC [10]; pH 8.0, 30 °C): 8.51 ± 0.37 s⁻¹ | specificity constant kcat/KM relative to that of HsQC (PgQC [11]): ~9% | Km (PgQC [11]; pH 8.0, 30 °C): 510 ± 13 µM | kcat (PgQC [11]; pH 8.0, 30 °C): 4.71 ± 0.22 s⁻¹

B1: PgQC (Porphyromonas gingivalis W83) (protein)
chain: NGNNTSETQGDRTEQAETVQADLFSADSAYTFVQRQVNFGPRIPGTAPHRACGDWLVATLRSFGAAVQEQTAEIKAHDGTMLPMRNIIASYRPEATGRMLLMAHWDTRPVCDQDANPAMHTETFDGADDGGSGVGVLLEIARYLGQQKDLGMGIDIVFFDTEDYGSYGDDESWCLGSQYWSRNPHVAGYKAEAGILLDMVGAKGATFYWEYFSKSYAPGLISAVWQTAAALGYGNYFIQADGGALTDDHVPVIKNLGIPCIDIINYSSKNEHGFGDHWHTQRDNMQIIDKNVLDAVGETVIRYLDEQVKAASH
Km [12]: 492.5 ± 26 µM | kcat [12]: 7 ± 0.66 s⁻¹ | kcat/Km [12]: 14300 ± 600 M⁻¹ s⁻¹ | Km [13]: 203.7 ± 5.1 µM | kcat [13]: 13.3 ± 1.6 s⁻¹ | kcat/Km [13]: 65100 ± 6000 M⁻¹ s⁻¹ | kcat/Km [14]: 4300 ± 100 M⁻¹ s⁻¹ | kcat/Km [15]: 12500 ± 1900 M⁻¹ s⁻¹ | kcat/Km [16]: 18600 ± 100 M⁻¹ s⁻¹
